The source of these data is publication PMC6563049, “Radiosynthesis of (R,S)‐[^18F]GE387: A Potential PET Radiotracer for Imaging Translocator Protein 18 kDa (TSPO) with Low Binding Sensitivity to the Human Gene Polymorphism rs6971” (Chemmedchem, 2019).

Data set [1] concerns TSPO A147T. Briefly: Radioligand ([^3H]1) displacement binding on membranes of HEK cells stably transfected with A147T TSPO. Also on record: species or system human. To be noted: for Ratio LAB/HAB: Ki at A147T TSPO / Ki at wild-type TSPO. The method, then: (§1) Binding affinities were measured as per our published protocol.21 Briefly, an Ultra‐Turrax homogeniser was used to prepare membranes from HEK cells stably transfected with wild‐type and A147T TSPO. […] Reactions were terminated by filtration through a 96‐well glass‐fibre filter plate (Millipore), and washed eight times with ice‐cold 50 mM Tris⋅HCl. […] Data were analysed using GraphPad Prism 6.0, and a four‐parameter nonlinear regression curve fit was used to calculate K i values. Data are expressed as the mean±SEM from at least three independent experiments.

Data set [2] in a line: In vivo PET imaging of the brain in healthy rats. To be noted: healthy male Wistar rats, i.v. tracer injection, 60 min acquisition, n=2. The method, then: The time–activity curve indicates distribution of radioactivity in the brain, albeit in a modest amount as the investigated animals were healthy.
Male Wistar rats (n=2; weight: 230 and 302 g) were obtained from Charles River Laboratories, UK. The rats were housed in Techniplast 2000P IVC cages on a layer of Aspen bedding in a room with constant temperature (21±2 °C) and fixed 12 h light–dark regime (lights on at 7:00 am). Food and water were available ad libitum. After arrival, the rats were allowed to acclimatise for at least seven days. This research was regulated under the Animals (Scientific Procedures) Act 1986 Amendment Regulations 2012 following ethical review by the University of Cambridge Animal Welfare and Ethical Review Body (AWERB).
Prior to scanning, the animals were anaesthetised using isofluorane at a concentration of 5 % in O2, and anaesthesia was maintained at 1.5–2.5 % isofluorane in O2. The femoral vein was cannulated for tracer injection. […]
Three‐dimensional regions of interest (ROIs) were drawn over the whole brain on an MRI template using PMOD software (version 3.2; PMOD technologies, Zurich, Switzerland). […] The results were expressed as dimensionless standardised uptake values (SUV=[(tissue activity)×(body weight)]/injected dose). SUVs were calculated assuming a specific gravity of 1 g mL^−1 for brain tissue.

In another data set the target is rat heart TSPO. The arrangement: method as in earlier work. To be noted: read-out: affinity, rat heart TSPO assay; cited from earlier work.
The next data set concerns the target T1, human TSPO wild‐type (Homo sapiens, UniProt P30536).
T1 construct: expressed in transfected cells; host or cells: HEK cells, stably transfected; membranes
Briefly: Radioligand ([^3H]1) displacement binding on membranes of HEK cells stably transfected with wild-type TSPO. To be noted: HEK cell membranes, [^3H]1 10 nM, 4 °C, 90 min; mean±SEM, n=3; read-out: Ki (nM) at WT (Ala/Ala) HAB. The method, then: Binding affinities were measured as per our published protocol.21 Briefly, an Ultra‐Turrax homogeniser was used to prepare membranes from HEK cells stably transfected with wild‐type and A147T TSPO. […] Reactions were terminated by filtration through a 96‐well glass‐fibre filter plate (Millipore), and washed eight times with ice‐cold 50 mM Tris⋅HCl. Microscint 0 was added to the dry filters, and radioactivity read in a Microbeta^2 2450 Microplate Counter (PerkinElmer). Data were analysed using GraphPad Prism 6.0, and a four‐parameter nonlinear regression curve fit was used to calculate K i values. Data are expressed as the mean±SEM from at least three independent experiments.

The target in data set [3] is T2, TSPO A147T (Homo sapiens, UniProt P30536).
T2 construct: expressed in transfected cells; host or cells: HEK cells, stably transfected; membranes
T2 sequence (P30536 whole entry, stated change not applied): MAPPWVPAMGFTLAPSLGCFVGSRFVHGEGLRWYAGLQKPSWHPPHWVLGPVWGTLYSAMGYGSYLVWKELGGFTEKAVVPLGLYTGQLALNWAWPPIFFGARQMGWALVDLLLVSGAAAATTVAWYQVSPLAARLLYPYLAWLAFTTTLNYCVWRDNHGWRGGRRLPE
Briefly: Radioligand ([^3H]1) displacement binding on membranes of HEK cells stably transfected with A147T TSPO. The protocol: as §1

Details of data set [4]: method as in PMID 26697963, PMID 26551697, PMID 29114179. To be noted: cited from earlier work.
Data set [5] concerns TSPO. To be noted: cited from earlier work.
In data set [6] the test system is TSPO A147T. The arrangement: method as in PMID 30108706. To be noted: cited from earlier work.
Data set [7] concerns TSPO. The arrangement: method as in PMID 22244939. To be noted: rats; cited from earlier work.

Read-outs that look alike come from different tables or passages of the source.

T1 sequence (P30536 whole entry T147A): as the sequence (P30536 whole entry, stated change not applied) above, with T147A counted along it

For `CCN(Cc1ccccc1)C(=O)C1CCCc2c1c1c(OC)cccc1n2CCF` (racemic) [compound 6, N ‐Benzyl‐N‐ethyl‐9‐(2‐fluoroethyl)‐5‐methoxy‐2,3,4,9‐tetrahydro‐1H‐carbazole‐4‐carboxamide], the “sensitivity to the human gene polymorphism rs6971” value in the data set on TSPO A147T [1] (conclusion from wild-type versus A147T binding) was “low sensitivity”.

Consider `CCN(Cc1ccccc1)C(=O)C1CCCc2c1c1c(OC)cccc1n2CC[18F]` (racemic) [racemic [^18F]6], for which the “entry of radioactivity into the brain (PET)” value in [2] is reported as “enters the brain”.

Turning to `CCN(Cc1ccccc1)C(=O)[C@@H]1CCCc2c1c1c(OC)cccc1n2CCF` [(R)-6, N ‐Benzyl‐N‐ethyl‐9‐(2‐fluoroethyl)‐5‐methoxy‐2,3,4,9‐tetrahydro‐1H‐carbazole‐4‐carboxamide], on rat heart TSPO, the Ki is 22 nM.

Consider `CCN(CC)C(=O)[C@H]1CCCc2c1c1c(OC)cccc1n2CCF` [(S)-5], for which the Ki amounted to 11.3 ± 0.6 nM on human TSPO wild‐type and 58.3 ± 6.4 nM on TSPO A147T [3] (HEK cell membranes, [^3H]1 10 nM, 4 °C, 90 min, mean±SEM, n=3, read-out: Ki (nM) at Ala147Thr LAB). The “Ratio LAB/HAB” value in the data set on TSPO A147T [1] is listed as 5.1.

As to `CCN(Cc1ccccc1)C(=O)[C@H]1CCCc2c1c1c(OC)cccc1n2CCF` [(S)-6, N ‐Benzyl‐N‐ethyl‐9‐(2‐fluoroethyl)‐5‐methoxy‐2,3,4,9‐tetrahydro‐1H‐carbazole‐4‐carboxamide], the Ki at human TSPO wild‐type is 36.3 ± 6.9 nM; on rat heart TSPO, 1.04 nM; on TSPO A147T [3], 47.3 ± 7 nM. Also, the “Ratio LAB/HAB” value with TSPO A147T [1] turned out to be 1.3.

For `CC[C@@H](C)N(C)C(=O)c1cc2ccccc2c(-c2ccccc2Cl)n1` [[^11C]1, R‐1‐(2‐chlorophenyl)‐N‐methyl‐N‐(1‐methylpropyl)‐3‐isoquinoline carboxamide], in data set [4], the brain permeability result was “low brain permeability”.

Regarding `CC[C@@H](C)N(C)C(=O)c1cc2ccccc2c(-c2ccccc2Cl)n1` [[^11C]1] [R‐1‐(2‐chlorophenyl)‐N‐methyl‐N‐(1‐methylpropyl)‐3‐isoquinoline carboxamide], the “affinity for TSPO” value with TSPO [5] (selective antagonist of TSPO) is recorded as 9.3 nM.

For the compound `CCN(CC)C(=O)C1CCCc2c1c1c(OC)cccc1n2CC[18F]` (stereo not shown) [[^18F]5], the “affinity for TSPO (in words)” value in the data set with TSPO [5] is reported as “good affinity”. Also, the “binding affinity ratio LABs/HABs” value in the data set with TSPO A147T [6] was 5.1. For the same compound, in the data set on TSPO [7], the brain uptake entry is listed as “good brain uptake” and the specific binding entry was “high specific binding”.
